Source: patent publication US20170007605A1, “Method of Optimizing the Treatment of Philadelphia-positive Leukemia with Abl Tyrosine Kinase Inhibitors” (Novartis AG, priority 2006, published 2017)
Values joined by “and” are separate entries in the source; they are usually repeats but may differ in a detail not shown here. Identical values can stand only once.

Legend:
CML patients = assay: Cytogenetic (CCR) and molecular (MMR) response to Imatinib mesylate therapy and ROC curve analysis, Bordeaux study; assay type: in vivo, human; conditions: of 68 CML patients, after at least one year's treatment, 400 or 600 mg once daily
Protocol: The cytogenetic response to Imatinib mesylate therapy was assessed using a conventional cytogenetic analysis of bone marrow metaphases. Cytogenetic responders were defined as having CCR, i.e. 0 percent of Philadelphia-chromosome-positive metaphases among at least 25 cells in metaphase in the bone marrow aspirate (Colombat M, Fort M P, Chollet C, et al. Haematologica 2006; 91:162-8.). Real-time quantitative reverse-transcriptase polymerase chain reaction assay was used to assess BCR-ABL transcript levels and quantify the molecular response (Colombat M, Fort M P, Chollet C, et al. see above). Briefly, EDTA-anticoagulated peripheral blood was collected to perform RNA extraction followed by real-time quantitative reverse-transcriptase polymerase chain reaction. […] Quantification of BCR-ABL transcripts was performed according to recommendations recently proposed for harmoniza-tion of results (Hughes T P, Deininger M, Hochhaus A, et al. Blood 2006; 108:28-37.). […] A standardized baseline was calculated by measuring the ratio of BCR-ABL/ABL in 40 chronic-phase CML patients from blood collected before any treatment. […]
Any relationship between BCR-ABL transcript levels and the range time from date of Imatinib mesylate treatment initiation to date of molecular analysis was evaluated.
Results were expressed as adjusted odds ratio; 95 percent confidence interval; P value of Wald test.

[1] = system: newly diagnosed patients with CML in chronic phase (CML-CP); conditions: cited from earlier work
[2] = Trough plasma Imatinib concentrations at steady-state, Bordeaux study (HPLC-ESI-MS/MS)
[3] = Plasma trough levels (Cmin) of Imatinib and CGP74588, IRIS study (LC/MS/MS); assay type: in vivo
CML-CP patients = assay: CCR and MMR rates by steady-state Imatinib trough level quartile, IRIS study; assay type: in vivo, human
Protocol: Rates of CCR (defined as 0% Ph+ metaphase cells out of at least 20 examined) in the study population and major molecular response (MMR, defined as ≧3 log reduction in BCR-ABL/BCR ratio from a standardized baseline) in subjects who achieved CCR before were reported previously (O'Brien S G, Guilhot F, Larson R A, et al., see above).
CCR were evaluated up to 5 years.

[4] = in patients; cited from earlier work
[5] = five year follow-up, first-line imatinib
[6] = 400 mg daily, 50 patients, steady-state
[7] = 600 mg daily, 18 patients, steady-state
[8] = patients without MMR (34 patients)
[9] = Day 29, Quartiles 2 and 3, N = 178

Cc1ccc(NC(=O)c2ccc(CN3CCN(C)CC3)cc2)cc1Nc1nccc(-c2cccnc2)n1 [Imatinib, 4-(4-methylpiperazin-1-ylmethyl)-N-[4-methyl-3-(4-(pyridin-3-yl)pyrimidin-2-ylamino)phenyl]-benzamide]
Number of patients who achieved a CCR (CML patients): 56
Efficacy compared with IFN+Ara-C ([1]; 400 mg daily, newly diagnosed CML-CP): superior efficacy to IFN+Ara-C
Estimated cumulative rate of complete cytogenetic response (CCR) [1, 5]: 87%
Overall survival [1, 5]: 89%
Trough plasma Imatinib concentration, mean value ([2]; 400 mg daily Imatinib mesylate, 50 patients, steady-state): 1058 ng per millilitre
Trough plasma Imatinib concentration, Q 25 (first quartile) [2, 6]: 722 ng per millilitre
Trough plasma Imatinib concentration, Q 75 (third quartile) [2, 6]: 1285 ng per millilitre
Trough plasma Imatinib concentration, maximum [2, 6]: 2947 ng per millilitre
Trough plasma Imatinib concentration, median [2, 6]: 997 ng per millilitre
Trough plasma Imatinib concentration, minimum [2, 6]: 181 ng per millilitre
Trough plasma Imatinib concentration, Q 25 (first quartile) [2, 7]: 902 ng per millilitre
Trough plasma Imatinib concentration, Q 75 (third quartile) [2, 7]: 1629 ng per millilitre
Trough plasma Imatinib concentration, maximum [2, 7]: 2922 ng per millilitre
Trough plasma Imatinib concentration, median [2, 7]: 1315 ng per millilitre
Trough plasma Imatinib concentration, minimum [2, 7]: 603 ng per millilitre
Mean (±SD) trough plasma Imatinib concentration ([2]; patients with CCR (56 patients)): 1123.3±616.6 ng per millilitre
Median trough plasma Imatinib concentration ([2]; patients with MMR (34 patients)): 1350.2 ng per millilitre
Mean (±SD) trough plasma Imatinib concentration ([2]; patients without CCR (12 patients)): 694.2±556.0 ng per millilitre
Mean (±SD) trough plasma Imatinib concentration [2, 8]: 869.3±427.5 ng per millilitre
Median trough plasma Imatinib concentration [2, 8]: 885.5 ng per millilitre
Steady-state trough level, mean (±SD) ([3]; Day 29, Quartile 1, N = 87): 490 (±119.7) ng/mL
Steady-state trough level, mean (±SD) ([3]; Day 29, Quartile 4, N = 86): 1661 (±602.0) ng/mL
Steady-state trough level, mean (±SD) [3, 9]: 889 (±148.2) ng/mL
Imatinib trough exposure (Cmin), mean ([3]; Day 29, patients who achieved CCR): 1009 ± 544 ng/mL and 1009 ng/mL
Imatinib trough exposure (Cmin), mean ([3]; Day 29, patients who did not achieve CCR): 812 ± 409 ng/mL and 812 ng/mL
Increase in trough level ([3]; age from 20 years to 70 years, linear relationship assumed): 295 ng/mL
Plasma trough level ([3]; females, steady state): 1078 ± 514.5 ng/mL
concentration at 24 h ([3]; human, plasma, first 400 mg dose, Day 2, mean±SD, read-out: 24-hour trough concentration after the first dose): 518 ± 370 ng/mL
Plasma trough level ([3]; males, steady state): 921 ± 530.8 ng/mL
Difference in plasma trough level, females vs males ([3]; steady state): 17.2%
Estimated decrease in trough level ([3]; weight increase from 40 kg to 120 kg, linear relationship assumed): approximately 280 ng/ml
MMR (%) in pts with CCR (CML-CP patients; 1 year, Quartile 1): 43%
CCR rate (CML-CP patients; 1 year, Quartile 1 (n = 87)): 59%
MMR (%) in pts with CCR (CML-CP patients; 1 year, Quartile 4): 55%
CCR rate (CML-CP patients; 1 year, Quartile 4 (n = 86)): 73%
MMR (%) in pts with CCR (CML-CP patients; 1 year, Quartiles 2 and 3): 56%
CCR rate (CML-CP patients; 1 year, Quartiles 2 and 3 (n = 178)): 71%
CCR rate (CML-CP patients; 2 years, Quartile 1): 73%
MMR (%) in pts with CCR (CML-CP patients; 2 years, Quartile 1): 63%
CCR rate (CML-CP patients; 2 years, Quartile 4): 84%
MMR (%) in pts with CCR (CML-CP patients; 2 years, Quartile 4): 86%
CCR rate (CML-CP patients; 2 years, Quartiles 2 and 3): 80%
MMR (%) in pts with CCR (CML-CP patients; 2 years, Quartiles 2 and 3): 78%
CCR rate (CML-CP patients; 4 years, Quartile 1): 81%
MMR (%) in pts with CCR (CML-CP patients; 4 years, Quartile 1): 65%
CCR rate (CML-CP patients; 4 years, Quartile 4): 89%
MMR (%) in pts with CCR (CML-CP patients; 4 years, Quartile 4): 90%
CCR rate (CML-CP patients; 4 years, Quartiles 2 and 3): 87%
MMR (%) in pts with CCR (CML-CP patients; 4 years, Quartiles 2 and 3): 83%
Time to CCR (CML-CP patients; Quartile 1): 8.3 Month
Time to MMR in pts with CCR (CML-CP patients; Quartile 1): 16.7 months
Time to CCR (CML-CP patients; Quartile 4): 5.6 Month
Time to CCR (CML-CP patients; Quartiles 2 and 3): 5.7 Month
Estimated MMR rate, all patients (CML-CP patients; at 1 year, Imatinib levels <647 ng/mL): 25%
Estimated MMR rate, all patients (CML-CP patients; by 4 years, Q1): 53%
Estimated MMR rate, all patients (CML-CP patients; by 4 years, Q4): 80%
Estimated MMR rate, all patients (CML-CP patients; by 4 years, inter-quartile range (IQ)): 72%
Estimated MMR rate, all patients (CML-CP patients; within 1 year, patients with higher Imatinib levels): 40%

Cc1ccc(NC(=O)c2ccc(CN3CCNCC3)cc2)cc1Nc1nccc(-c2cccnc2)n1 [CGP74588, N-{5-[4-(piperazino-methyl)-benzoylamido]-2-methylphenyl}-4-(3-pyridyl)-2-pyrimidine-amine]
Steady-state trough level, mean (±SD) ([3]; Day 29, 400 mg daily, overall N = 351): 241.9±105.5 ng/mL and 242 (±105.5) ng/mL
CGP74588/Imatinib trough concentration ratio, mean (±SD) ([3]; Day 29, Quartile 1, N = 87): 0.32 (±0.106)
Steady-state trough level, mean (±SD) ([3]; Day 29, Quartile 1, N = 87): 153 (±48.5) ng/mL
CGP74588/Imatinib trough concentration ratio, mean (±SD) ([3]; Day 29, Quartile 4, N = 86): 0.21 (±0.052)
Steady-state trough level, mean (±SD) ([3]; Day 29, Quartile 4, N = 86): 343 (±126.1) ng/mL
CGP74588/Imatinib trough concentration ratio, mean (±SD) [3, 9]: 0.27 (±0.068)
Steady-state trough level, mean (±SD) [3, 9]: 236 (±65.8) ng/mL
24-hour trough concentration after the first dose ([3]; first 400 mg dose, Day 2, mean±SD): 82.7 ± 47.4 ng/mL
Contribution of the metabolite to Imatinib exposure ([3]; in vivo): < 20%
Spearman correlation coefficient between parent drug and metabolite levels ([3]; in vivo): 0.76
Accumulation ratio to steady state ([3]; trough levels on days 2 and 29 in the same subject): 3.38±1.54
Metabolite level as share of the parent drug plasma level [4]: ~20%
